ChEMBL document CHEMBL1145771 (Bioorg Med Chem Lett, 2003)

Legend:
[1] = Selectivity ratio for inhibition of Protein phosphatase 1 and Protein phosphatase 2A
[2] = Inhibition of protein phosphatase 1 (PP1) was determined by standard phosphorylase a inhibition assay; design: species or system Oryctolagus cuniculus

Structure (SMILES) | Selectivity ratio [1] | IC50 [2] [µM]
CO[C@H]([C@H](O)CC(=O)[C@@H](C)[C@@H](O)CC[C@@H](C)[C@@H]1O[C@]2(CC[C@@H](C)[C@H](CC[C@H](C)C(C)=O)O2)CC[C@@H]1C)[C@H](OC(=O)C[C@@H](O)C1=C(C)C(=O)OC1=O)C(C)C [TAUTOMYCIN] | – | 1.9
CO[C@@H]([C@H](O)CC(=O)[C@@H](C)[C@@H](O)CC[C@@H](C)[C@@H]1O[C@]2(CC[C@@H](C)[C@H](CC[C@H](C)C(C)=O)O2)CC[C@@H]1C)[C@H](OC(=O)CCCP(=O)(O)O)C(C)C | 2 | 150
CO[C@@H]([C@H](O)CC(=O)[C@@H](C)[C@@H](O)CC[C@@H](C)[C@@H]1O[C@]2(CC[C@@H](C)[C@H](CC[C@H](C)C(C)=O)O2)CC[C@@H]1C)[C@H](OC(=O)C[C@H](O)C1=C(C)C(=O)OC1=O)C(C)C | – | 0.13

The remaining lines, values ahead:

Selectivity ratio [1] | IC50 [2] [µM] | Structure (SMILES)
1.9 | 2.1 | CO[C@@H]([C@H](O)CC(=O)[C@@H](C)[C@@H](O)CC[C@@H](C)[C@@H]1O[C@]2(CC[C@@H](C)[C@H](CC[C@H](C)C(C)=O)O2)CC[C@@H]1C)[C@H](OC(=O)C[C@@H](O)/C=C(\C)C(=O)O)C(C)C
1.5 | 19 | CO[C@@H]([C@H](O)CC(=O)[C@@H](C)[C@@H](O)CC[C@@H](C)[C@@H]1O[C@]2(CC[C@@H](C)[C@H](CC[C@H](C)C(C)=O)O2)CC[C@@H]1C)[C@H](OC(=O)C[C@](C)(O)C(=O)O)C(C)C
1.3 | 80 | CO[C@@H]([C@H](O)CC(=O)[C@@H](C)[C@@H](O)CC[C@@H](C)[C@@H]1O[C@]2(CC[C@@H](C)[C@H](CC[C@H](C)C(C)=O)O2)CC[C@@H]1C)[C@H](OC(=O)C[C@@](C)(O)C(=O)O)C(C)C
